According to PubChem BioAssay (NCI):
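Five concentrations, 48 hours, 96-well plates. GI50 marks 50% less growth. TGI marks complete inhibition of growth.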

How the values were obtained:
Test in all cases: NCI tumour cell line growth inhibition, 48 h
[1] = system: LOX IMVI melanoma
[2] = system: BT-549 breast
[3] = system: CAKI-1 renal
[4] = system: SR leukemia
[5] = system: UO-31 renal
[6] = system: NCI/ADR-RES ovarian
[7] = system: MDA-MB-468 breast
[8] = system: SK-MEL-2 melanoma
[9] = system: SN12C renal
[10] = system: OVCAR-3 ovarian
[11] = system: NCI-H23 lung
[12] = system: UACC-257 melanoma
[13] = system: CCRF-CEM leukemia
[14] = system: KM12 colon
[15] = system: SF-268 CNS
[16] = system: SK-OV-3 ovarian
[17] = system: TK-10 renal
[18] = system: NCI-H522 lung
[19] = system: SF-295 CNS
[20] = system: HCT-15 colon
[21] = system: NCI-H226 lung
[22] = system: M14 melanoma
[23] = system: HOP-62 NSCLC
[24] = system: K-562 leukemia
[25] = system: 786-0 renal
[26] = system: NCI-H460 lung
[27] = system: HOP-92 NSCLC
[28] = system: OVCAR-5 ovarian
[29] = system: HL-60(TB) leukemia
[30] = system: UACC-62 melanoma
[31] = system: MALME-3M melanoma
[32] = system: RXF 393 renal
[33] = system: T-47D breast
[34] = system: MOLT-4 leukemia
[35] = system: IGROV1 ovarian
[36] = system: COLO 205 colon
[37] = system: MCF7 breast
[38] = system: RPMI-8226 leukemia
[39] = system: OVCAR-4 ovarian
[40] = system: HCC-2998 colon
[41] = system: HT29 colon
[42] = system: MDA-MB-435
[43] = system: ACHN renal
[44] = system: PC-3 prostate
[45] = system: U251 CNS
[46] = system: A549 NSCLC
[47] = system: SW-620 colon
[48] = system: A498 renal
[49] = system: SF-539 CNS
[50] = system: OVCAR-8 ovarian
[51] = system: HS 578T breast
[52] = system: SNB-19 CNS
[53] = system: MDA-MB-231 breast
[54] = system: SK-MEL-28 melanoma
[55] = system: DU-145 prostate
[56] = system: HCT-116 colon
[57] = system: EKVX NSCLC
[58] = system: SK-MEL-5 melanoma

## O=C(NNc1nc2cc(F)ccc2n2c(CN3CCCCC3)ccc12)c1cnccn1
[1]
  GI50: 682 nM
  TGI: 2880 nM
[2]
  GI50: 1570 nM
  TGI: 12700 nM
[3]
  GI50: 918 nM
  TGI: 11000 nM
[4]
  GI50: 288 nM
  TGI: 2210 nM
[5]
  GI50: 330 nM
  TGI: 4910 nM
[6]
  GI50: 514 nM
  TGI: 2290 nM
[7]
  GI50: 1200 nM
  TGI: 3100 nM
[8]
  GI50: 2130 nM
  TGI: 12400 nM
[9]
  GI50: 1290 nM
  TGI: 8500 nM
[10]
  GI50: 2040 nM
  TGI: 16000 nM
[11]
  GI50: 1390 nM
  TGI: 3430 nM
[12]
  GI50: 2730 nM
  TGI: 9770 nM
[13]
  GI50: 462 nM
  TGI: 3170 nM
[14]
  GI50: 1170 nM
  TGI: 12400 nM
[15]
  GI50: 1330 nM
  TGI: 11800 nM
[16]
  GI50: 1170 nM
  TGI: 10900 nM
[17]
  GI50: 969 nM
  TGI: 10200 nM
[18]
  GI50: 1360 nM
  TGI: 5100 nM
[19]
  GI50: 599 nM
  TGI: 6270 nM
[20]
  GI50: 190 nM
  TGI: 12800 nM
[21]
  GI50: 1640 nM
  TGI: 6800 nM
[22]
  GI50: 1490 nM
  TGI: 5540 nM
[23]
  GI50: 1140 nM
  TGI: 7910 nM
[24]
  GI50: 1220 nM
  TGI: 4580 nM
[25]
  GI50: 1320 nM
  TGI: 4360 nM
[26]
  GI50: 392 nM
  TGI: 3150 nM
[27]
  GI50: 1190 nM
  TGI: 5370 nM
[28]
  GI50: 1350 nM
  TGI: 7230 nM
[29]
  GI50: 340 nM
  TGI: 1640 nM
[30]
  GI50: 1280 nM
  TGI: 3240 nM
[31]
  GI50: 2310 nM
  TGI: 8940 nM
[32]
  GI50: 1690 nM
  TGI: 5620 nM
[33]
  GI50: 2070 nM
  TGI: 10200 nM
[34]
  GI50: 388 nM
  TGI: 2320 nM
[35]
  GI50: 894 nM
  TGI: 5060 nM
[36]
  GI50: 1160 nM
  TGI: 9740 nM
[37]
  GI50: 1580 nM
  TGI: 10300 nM
[38]
  GI50: 953 nM
  TGI: 12100 nM
[39]
  GI50: 842 nM
  TGI: 4550 nM
[40]
  GI50: 1140 nM
  TGI: 11600 nM
[41]
  GI50: 474 nM
  TGI: 13300 nM
[42]
  GI50: 2740 nM
  TGI: 13900 nM
[43]
  GI50: 763 nM
  TGI: 7910 nM
[44]
  GI50: 1220 nM
  TGI: 6720 nM
[45]
  GI50: 967 nM
  TGI: 11700 nM
[46]
  GI50: 1220 nM
  TGI: 11800 nM
[47]
  GI50: 1070 nM
  TGI: 10700 nM
[48]
  GI50: 13900 nM
  TGI: 26900 nM
[49]
  GI50: 1140 nM
  TGI: 6940 nM
[50]
  GI50: 944 nM
  TGI: 5270 nM
[51]
  GI50: 2620 nM
  TGI: 18000 nM
[52]
  GI50: 1540 nM
  TGI: 12000 nM
[53]
  GI50: 1260 nM
  TGI: 10400 nM
[54]
  GI50: 2700 nM
  TGI: 13300 nM
[55]
  GI50: 1410 nM
  TGI: 11800 nM
[56]
  GI50: 701 nM
  TGI: 12500 nM
[57]
  GI50: 525 nM
  TGI: 3760 nM
[58]
  GI50: 1810 nM
  TGI: 8100 nM
